Reference: ChEMBL document CHEMBL4033774, “Class I HDAC Inhibitors: Potential New Epigenetic Therapeutics for Alcohol Use Disorder (AUD)” (J Med Chem, 2018)

Experiments:
[1] = Half life in human at 2 mg/m2 dosed twice a week; assay type: ADME, organism-based; conditions: in vivo
Rattus norvegicus [2] = experiment: Decrease in alcohol intake in rat model of voluntary heavy drinking assessed as decrease in relapse phenomenon after period of abstinence at 500 uM, icv administered twice relative to control; assay type: functional; design: scale not given: the % may be the effect or the level left
[3] = Lipophilicity, log D of the compound at pH 7.4; assay type: physicochemical; conditions: buffer
Rattus norvegicus [4] = experiment: Decrease in alcohol intake in rat model of voluntary heavy drinking assessed as decrease in motivation to consume alcohol at 500 uM, icv administered twice relative to control; assay type: functional; design: scale not given: the % may be the effect or the level left
[5] = Half life in human at 6 mg/m2, po; assay type: ADME
[6] = Lipophilicity, log P of the compound at pH 7.4; assay type: physicochemical; conditions: buffer
Brain [7] = experiment: Drug uptake in iv dosed rat brain after 90 mins by PET imaging method relative to control; assay type: ADME, organism-based; conditions: in vivo, 1.5 h
Brain [8] = experiment: Drug uptake in iv dosed baboon brain after 90 mins by PET imaging method relative to control; assay type: ADME, organism-based; conditions: papio anubis, in vivo, 1.5 h
Rattus norvegicus [9] = experiment: Decrease in alcohol intake in rat model of voluntary heavy drinking assessed as decrease in operant alcohol self-administration at 500 uM, icv administered twice relative to control; assay type: functional; design: scale not given: the % may be the effect or the level left
Histone deacetylase 8 [10] = target: T1, Histone deacetylase 8 (Homo sapiens, UniProt Q9BY41); experiment: Inhibition of full length 6His-tagged HDAC8 (unknown origin) expressed in baculovirus infected Sf9 insect cells incubated for 17 hrs in presence of FAM-labeled acetylated peptide substrate by fluorescence assay
T1 sequence (Q9BY41 whole entry): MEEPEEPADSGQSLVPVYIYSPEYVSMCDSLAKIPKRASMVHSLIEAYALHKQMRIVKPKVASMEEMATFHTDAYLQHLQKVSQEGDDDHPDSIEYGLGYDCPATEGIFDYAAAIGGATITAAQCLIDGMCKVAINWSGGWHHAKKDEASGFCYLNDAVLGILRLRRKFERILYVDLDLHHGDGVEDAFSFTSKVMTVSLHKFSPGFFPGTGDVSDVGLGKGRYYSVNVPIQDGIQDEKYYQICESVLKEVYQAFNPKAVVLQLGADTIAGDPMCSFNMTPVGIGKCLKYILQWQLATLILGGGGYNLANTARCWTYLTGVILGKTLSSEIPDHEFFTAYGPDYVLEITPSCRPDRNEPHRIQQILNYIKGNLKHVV

[11] = target: T2, Protein deacetylase HDAC6 (Homo sapiens, UniProt Q9UBN7); experiment: Inhibition of full length 6His-tagged HDAC6 (unknown origin) expressed in baculovirus infected Sf9 insect cells incubated for 17 hrs in presence of FAM-labeled acetylated peptide substrate by fluorescence assay
T2 sequence (Q9UBN7 whole entry): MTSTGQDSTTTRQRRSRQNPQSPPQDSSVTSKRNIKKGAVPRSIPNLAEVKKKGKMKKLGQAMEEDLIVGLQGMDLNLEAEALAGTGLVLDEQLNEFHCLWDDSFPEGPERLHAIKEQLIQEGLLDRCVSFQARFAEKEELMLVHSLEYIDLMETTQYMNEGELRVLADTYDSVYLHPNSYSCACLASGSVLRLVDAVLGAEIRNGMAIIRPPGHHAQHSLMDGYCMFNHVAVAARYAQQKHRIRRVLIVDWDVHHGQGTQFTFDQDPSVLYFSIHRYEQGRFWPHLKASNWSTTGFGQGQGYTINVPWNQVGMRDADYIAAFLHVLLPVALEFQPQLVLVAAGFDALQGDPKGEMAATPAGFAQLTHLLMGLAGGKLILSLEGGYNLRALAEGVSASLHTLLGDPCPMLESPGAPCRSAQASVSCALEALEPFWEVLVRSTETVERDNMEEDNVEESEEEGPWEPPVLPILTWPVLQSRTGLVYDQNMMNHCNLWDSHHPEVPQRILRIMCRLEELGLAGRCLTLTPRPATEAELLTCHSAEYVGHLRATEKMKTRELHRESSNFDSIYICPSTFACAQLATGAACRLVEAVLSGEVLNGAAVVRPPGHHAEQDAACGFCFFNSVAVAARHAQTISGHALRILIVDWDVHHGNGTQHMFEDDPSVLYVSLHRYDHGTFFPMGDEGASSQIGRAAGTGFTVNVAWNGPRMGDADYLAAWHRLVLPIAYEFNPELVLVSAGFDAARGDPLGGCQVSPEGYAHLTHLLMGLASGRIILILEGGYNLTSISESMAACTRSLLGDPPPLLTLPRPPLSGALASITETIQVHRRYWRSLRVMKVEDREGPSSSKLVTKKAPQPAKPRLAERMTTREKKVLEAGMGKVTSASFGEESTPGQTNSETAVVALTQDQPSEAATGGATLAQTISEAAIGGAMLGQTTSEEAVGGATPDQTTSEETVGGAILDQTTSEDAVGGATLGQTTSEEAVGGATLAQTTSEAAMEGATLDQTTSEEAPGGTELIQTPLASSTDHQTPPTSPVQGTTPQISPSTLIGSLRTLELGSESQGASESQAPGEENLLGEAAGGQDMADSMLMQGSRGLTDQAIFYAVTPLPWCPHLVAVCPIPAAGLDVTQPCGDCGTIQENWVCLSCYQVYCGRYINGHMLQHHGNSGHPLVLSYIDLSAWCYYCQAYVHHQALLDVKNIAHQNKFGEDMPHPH

Histone deacetylase 2 [12] = target: T3, Histone deacetylase 2 (Homo sapiens, UniProt Q92769); experiment: Inhibition of full length 6His-tagged HDAC2 (unknown origin) expressed in baculovirus infected Sf9 insect cells incubated for 17 hrs in presence of FAM-labeled acetylated peptide substrate by fluorescence assay
[13] = target: T4, Polyamine deacetylase HDAC10 (Homo sapiens, UniProt Q969S8); experiment: Inhibition of C-terminal 6His-tagged HDAC10 (unknown origin) (632 to 669 residues) expressed in baculovirus infected Sf9 insect cells incubated for 17 hrs in presence of FAM-labeled acetylated peptide substrate by fluorescence assay
T4 sequence (Q969S8 whole entry): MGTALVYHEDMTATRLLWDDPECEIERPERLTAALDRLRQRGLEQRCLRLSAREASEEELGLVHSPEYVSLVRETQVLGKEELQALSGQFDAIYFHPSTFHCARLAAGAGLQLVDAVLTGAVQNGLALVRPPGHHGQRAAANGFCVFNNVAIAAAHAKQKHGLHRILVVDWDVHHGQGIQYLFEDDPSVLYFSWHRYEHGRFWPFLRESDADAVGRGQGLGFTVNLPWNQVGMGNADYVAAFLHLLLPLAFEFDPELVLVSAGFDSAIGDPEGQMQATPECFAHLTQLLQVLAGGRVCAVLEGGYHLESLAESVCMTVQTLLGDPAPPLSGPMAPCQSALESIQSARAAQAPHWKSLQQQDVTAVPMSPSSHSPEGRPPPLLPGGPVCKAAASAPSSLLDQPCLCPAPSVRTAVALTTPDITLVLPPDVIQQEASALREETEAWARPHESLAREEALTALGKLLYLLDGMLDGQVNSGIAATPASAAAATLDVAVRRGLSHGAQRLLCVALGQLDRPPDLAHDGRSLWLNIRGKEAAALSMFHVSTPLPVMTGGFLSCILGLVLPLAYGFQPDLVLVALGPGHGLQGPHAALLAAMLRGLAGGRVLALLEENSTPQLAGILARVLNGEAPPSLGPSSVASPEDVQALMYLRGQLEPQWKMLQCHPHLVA

Histone deacetylase 1 [14] = target: T5, Histone deacetylase 1 (Homo sapiens, UniProt Q13547); experiment: Inhibition of full length 6His-tagged HDAC1 (unknown origin) expressed in baculovirus infected Sf9 insect cells incubated for 17 hrs in presence of FAM-labeled acetylated peptide substrate by fluorescence assay
Histone deacetylase 7 = target: T6, Histone deacetylase 7 (Homo sapiens, UniProt Q8WUI4); experiment: Inhibition of human recombinant N-terminal GST-tagged HDAC7 expressed in baculovirus infected insect cells preincubated for 2 hrs followed by Fluor-de-Lys substrate addition measured after 30 mins by fluorescence assay; assay type: cell-based
T6 sequence (Q8WUI4 whole entry): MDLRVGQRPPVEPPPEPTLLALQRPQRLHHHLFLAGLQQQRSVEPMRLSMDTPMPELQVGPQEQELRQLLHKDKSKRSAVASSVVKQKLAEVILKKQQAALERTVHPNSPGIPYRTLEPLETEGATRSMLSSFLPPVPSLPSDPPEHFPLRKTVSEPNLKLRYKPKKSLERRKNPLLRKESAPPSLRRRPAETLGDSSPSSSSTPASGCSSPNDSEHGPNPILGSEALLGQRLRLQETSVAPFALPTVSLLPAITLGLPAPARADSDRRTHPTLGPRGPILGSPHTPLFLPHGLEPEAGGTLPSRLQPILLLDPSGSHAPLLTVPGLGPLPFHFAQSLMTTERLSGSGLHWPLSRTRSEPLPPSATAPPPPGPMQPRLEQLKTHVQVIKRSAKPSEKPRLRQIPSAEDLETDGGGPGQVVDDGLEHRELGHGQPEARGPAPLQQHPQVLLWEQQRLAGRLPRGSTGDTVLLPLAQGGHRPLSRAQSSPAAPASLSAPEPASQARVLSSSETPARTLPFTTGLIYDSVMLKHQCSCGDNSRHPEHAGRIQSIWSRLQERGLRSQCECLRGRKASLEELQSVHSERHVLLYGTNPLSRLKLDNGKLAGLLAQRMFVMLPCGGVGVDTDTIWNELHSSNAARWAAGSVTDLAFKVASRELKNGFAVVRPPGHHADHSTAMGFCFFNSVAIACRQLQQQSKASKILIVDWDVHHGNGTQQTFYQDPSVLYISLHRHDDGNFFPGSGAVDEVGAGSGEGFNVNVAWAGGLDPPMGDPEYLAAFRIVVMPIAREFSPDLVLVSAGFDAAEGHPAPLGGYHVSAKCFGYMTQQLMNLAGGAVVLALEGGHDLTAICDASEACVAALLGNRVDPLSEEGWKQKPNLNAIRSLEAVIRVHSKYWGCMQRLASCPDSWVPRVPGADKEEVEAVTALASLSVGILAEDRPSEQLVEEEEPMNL

Histone deacetylase 4 = Histone deacetylase 4 (Homo sapiens, UniProt P56524); experiment: Inhibition of human recombinant N-terminal GST-tagged/C-terminal His-tagged HDAC4 expressed in baculovirus infected insect cells preincubated for 2 hrs followed by Fluor-de-Lys substrate addition measured after 30 mins by fluorescence assay; assay type: cell-based
Histone deacetylase 2 [15] = target: T3, Histone deacetylase 2; experiment: Inhibition of human full length C-terminal FLAG-tagged HDAC2 expressed in baculovirus infected Sf9 insect cells preincubated for 2 hrs followed by Fluor-de-Lys substrate addition measured after 30 mins by fluorescence assay; assay type: cell-based
Histone deacetylase 1 [16] = target: T5, Histone deacetylase 1; experiment: Inhibition of human full length C-terminal His/FLAG-tagged HDAC1 expressed in baculovirus infected Sf9 insect cells preincubated for 2 hrs followed by Fluor-de-Lys substrate addition measured after 30 mins by fluorescence assay; assay type: cell-based
[17] = target: Histone deacetylase 3/Nuclear receptor corepressor 2 (HDAC3/NCoR2) (Homo sapiens, UniProt O15379); experiment: Inhibition of human full length C-terminal His-tagged HDAC3/N-terminal GST-tagged human NCOR2 co-expressed in baculovirus infected Sf9 insect cells preincubated for 2 hrs followed by Fluor-de-Lys substrate addition measured after 30 mins by fluorescence assay; assay type: cell-based
Histone deacetylase 5 = Histone deacetylase 5 (Homo sapiens, UniProt Q9UQL6); experiment: Inhibition of human recombinant C-terminal His-tagged HDAC5 expressed in baculovirus infected insect cells preincubated for 2 hrs followed by Fluor-de-Lys substrate addition measured after 30 mins by fluorescence assay; assay type: cell-based
Histone deacetylase 8 [18] = target: T1, Histone deacetylase 8; experiment: Inhibition of HDAC8 (unknown origin) preincubated for 2 hrs followed by Fluor-de-Lys substrate addition measured after 30 mins by fluorescence assay

T3 sequence (Q92769 whole entry, the tested form may be a part): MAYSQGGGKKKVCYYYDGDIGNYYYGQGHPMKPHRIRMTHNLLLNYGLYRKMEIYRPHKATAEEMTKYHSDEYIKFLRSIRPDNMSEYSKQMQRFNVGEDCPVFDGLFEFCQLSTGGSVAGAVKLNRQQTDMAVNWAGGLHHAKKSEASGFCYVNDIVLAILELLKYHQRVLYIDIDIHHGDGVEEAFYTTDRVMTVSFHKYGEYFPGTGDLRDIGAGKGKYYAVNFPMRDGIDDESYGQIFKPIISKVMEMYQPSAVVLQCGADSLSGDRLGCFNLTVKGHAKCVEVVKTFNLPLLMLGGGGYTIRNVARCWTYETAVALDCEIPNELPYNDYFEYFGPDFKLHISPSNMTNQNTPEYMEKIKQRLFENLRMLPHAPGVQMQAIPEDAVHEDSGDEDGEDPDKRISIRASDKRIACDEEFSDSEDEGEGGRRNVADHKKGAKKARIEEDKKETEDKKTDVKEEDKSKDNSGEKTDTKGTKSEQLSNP
T5 sequence (Q13547 whole entry): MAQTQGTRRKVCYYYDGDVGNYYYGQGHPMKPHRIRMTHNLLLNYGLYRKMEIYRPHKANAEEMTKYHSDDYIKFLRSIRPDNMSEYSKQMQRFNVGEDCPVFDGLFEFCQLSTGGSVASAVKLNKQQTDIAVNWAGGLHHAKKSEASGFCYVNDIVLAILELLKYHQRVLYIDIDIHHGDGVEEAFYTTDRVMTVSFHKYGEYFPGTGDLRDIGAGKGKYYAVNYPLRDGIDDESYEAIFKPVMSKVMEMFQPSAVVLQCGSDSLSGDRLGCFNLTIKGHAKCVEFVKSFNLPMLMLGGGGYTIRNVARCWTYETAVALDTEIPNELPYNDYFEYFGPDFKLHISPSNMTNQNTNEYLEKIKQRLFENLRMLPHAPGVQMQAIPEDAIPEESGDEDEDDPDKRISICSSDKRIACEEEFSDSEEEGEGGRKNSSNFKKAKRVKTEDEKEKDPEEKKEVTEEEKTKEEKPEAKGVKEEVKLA
Sequence of Histone deacetylase 3/Nuclear receptor corepressor 2 (HDAC3/NCoR2) (O15379 whole entry): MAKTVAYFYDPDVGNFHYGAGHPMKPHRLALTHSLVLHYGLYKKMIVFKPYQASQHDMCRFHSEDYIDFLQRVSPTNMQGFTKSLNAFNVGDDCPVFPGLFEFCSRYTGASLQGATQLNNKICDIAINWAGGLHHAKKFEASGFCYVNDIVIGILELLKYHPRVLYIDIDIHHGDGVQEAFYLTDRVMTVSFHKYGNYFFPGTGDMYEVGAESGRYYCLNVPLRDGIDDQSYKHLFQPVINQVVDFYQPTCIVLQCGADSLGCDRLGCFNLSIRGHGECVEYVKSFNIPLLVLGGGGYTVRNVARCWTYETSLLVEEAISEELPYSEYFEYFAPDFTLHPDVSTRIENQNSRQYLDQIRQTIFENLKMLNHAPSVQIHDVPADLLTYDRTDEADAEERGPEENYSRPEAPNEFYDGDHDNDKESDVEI
Sequence of Histone deacetylase 3/Nuclear receptor corepressor 2 (HDAC3/NCoR2) (Q9Y618 whole entry, further chain): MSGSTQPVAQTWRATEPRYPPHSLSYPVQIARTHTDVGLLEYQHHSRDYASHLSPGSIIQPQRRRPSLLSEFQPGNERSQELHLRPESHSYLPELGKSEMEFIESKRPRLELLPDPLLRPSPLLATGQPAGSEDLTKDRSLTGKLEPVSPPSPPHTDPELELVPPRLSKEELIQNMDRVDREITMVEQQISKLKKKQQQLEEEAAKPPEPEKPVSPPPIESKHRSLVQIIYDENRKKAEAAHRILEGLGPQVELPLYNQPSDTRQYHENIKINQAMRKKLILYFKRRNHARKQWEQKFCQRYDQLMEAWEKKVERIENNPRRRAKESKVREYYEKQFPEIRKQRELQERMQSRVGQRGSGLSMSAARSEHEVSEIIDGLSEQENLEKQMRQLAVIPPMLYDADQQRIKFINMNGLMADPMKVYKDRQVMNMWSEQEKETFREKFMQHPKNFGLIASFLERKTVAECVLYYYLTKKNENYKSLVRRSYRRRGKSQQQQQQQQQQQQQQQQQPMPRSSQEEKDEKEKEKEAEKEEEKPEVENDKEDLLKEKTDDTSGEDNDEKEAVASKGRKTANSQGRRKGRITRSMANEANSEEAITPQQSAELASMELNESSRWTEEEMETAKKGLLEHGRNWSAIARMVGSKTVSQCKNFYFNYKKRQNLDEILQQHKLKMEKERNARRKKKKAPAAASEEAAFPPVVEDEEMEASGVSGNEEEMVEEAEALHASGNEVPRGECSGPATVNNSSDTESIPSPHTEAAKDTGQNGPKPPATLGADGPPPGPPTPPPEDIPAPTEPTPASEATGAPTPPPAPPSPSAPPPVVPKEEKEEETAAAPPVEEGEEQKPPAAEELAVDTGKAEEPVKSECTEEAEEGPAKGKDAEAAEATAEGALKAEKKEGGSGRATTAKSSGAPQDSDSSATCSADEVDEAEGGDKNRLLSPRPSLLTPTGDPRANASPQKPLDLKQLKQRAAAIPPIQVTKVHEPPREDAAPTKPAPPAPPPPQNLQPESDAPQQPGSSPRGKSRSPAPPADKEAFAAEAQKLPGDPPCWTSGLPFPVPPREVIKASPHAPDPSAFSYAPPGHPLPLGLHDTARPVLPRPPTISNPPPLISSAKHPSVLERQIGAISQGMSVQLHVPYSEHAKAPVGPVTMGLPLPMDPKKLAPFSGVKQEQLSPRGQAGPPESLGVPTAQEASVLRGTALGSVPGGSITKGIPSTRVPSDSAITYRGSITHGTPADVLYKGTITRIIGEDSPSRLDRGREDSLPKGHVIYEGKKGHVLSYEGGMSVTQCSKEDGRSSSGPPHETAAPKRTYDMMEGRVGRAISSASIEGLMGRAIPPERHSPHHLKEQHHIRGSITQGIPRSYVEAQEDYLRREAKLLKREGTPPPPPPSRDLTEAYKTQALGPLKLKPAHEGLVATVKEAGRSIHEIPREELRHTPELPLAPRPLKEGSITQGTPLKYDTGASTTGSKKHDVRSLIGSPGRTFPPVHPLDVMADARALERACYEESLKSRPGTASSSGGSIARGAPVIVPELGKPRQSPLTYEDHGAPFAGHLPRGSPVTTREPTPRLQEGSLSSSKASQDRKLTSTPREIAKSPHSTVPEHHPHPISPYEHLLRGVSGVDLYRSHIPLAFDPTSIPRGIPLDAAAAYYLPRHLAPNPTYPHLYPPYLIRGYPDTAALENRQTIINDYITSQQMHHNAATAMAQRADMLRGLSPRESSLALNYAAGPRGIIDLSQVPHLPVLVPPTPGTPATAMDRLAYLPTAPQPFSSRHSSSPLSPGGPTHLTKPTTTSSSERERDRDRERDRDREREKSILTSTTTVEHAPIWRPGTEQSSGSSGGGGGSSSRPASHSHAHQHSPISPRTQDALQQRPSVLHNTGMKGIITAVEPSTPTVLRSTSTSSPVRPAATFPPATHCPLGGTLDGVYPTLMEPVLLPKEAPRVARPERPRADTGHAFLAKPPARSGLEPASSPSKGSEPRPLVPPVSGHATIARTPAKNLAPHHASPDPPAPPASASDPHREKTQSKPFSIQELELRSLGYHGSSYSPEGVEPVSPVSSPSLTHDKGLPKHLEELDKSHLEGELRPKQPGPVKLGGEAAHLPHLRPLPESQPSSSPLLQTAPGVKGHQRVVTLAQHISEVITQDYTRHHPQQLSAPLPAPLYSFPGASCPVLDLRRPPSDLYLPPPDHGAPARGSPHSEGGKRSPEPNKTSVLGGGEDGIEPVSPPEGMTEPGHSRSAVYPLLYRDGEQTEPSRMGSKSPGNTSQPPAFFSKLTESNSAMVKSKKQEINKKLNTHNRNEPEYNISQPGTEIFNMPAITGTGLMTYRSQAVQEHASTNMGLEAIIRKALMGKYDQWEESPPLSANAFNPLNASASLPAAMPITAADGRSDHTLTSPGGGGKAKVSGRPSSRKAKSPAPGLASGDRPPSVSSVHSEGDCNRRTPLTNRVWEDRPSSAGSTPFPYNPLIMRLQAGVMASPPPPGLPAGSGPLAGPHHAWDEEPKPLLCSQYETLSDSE
Sequence of Histone deacetylase 4 (P56524 whole entry): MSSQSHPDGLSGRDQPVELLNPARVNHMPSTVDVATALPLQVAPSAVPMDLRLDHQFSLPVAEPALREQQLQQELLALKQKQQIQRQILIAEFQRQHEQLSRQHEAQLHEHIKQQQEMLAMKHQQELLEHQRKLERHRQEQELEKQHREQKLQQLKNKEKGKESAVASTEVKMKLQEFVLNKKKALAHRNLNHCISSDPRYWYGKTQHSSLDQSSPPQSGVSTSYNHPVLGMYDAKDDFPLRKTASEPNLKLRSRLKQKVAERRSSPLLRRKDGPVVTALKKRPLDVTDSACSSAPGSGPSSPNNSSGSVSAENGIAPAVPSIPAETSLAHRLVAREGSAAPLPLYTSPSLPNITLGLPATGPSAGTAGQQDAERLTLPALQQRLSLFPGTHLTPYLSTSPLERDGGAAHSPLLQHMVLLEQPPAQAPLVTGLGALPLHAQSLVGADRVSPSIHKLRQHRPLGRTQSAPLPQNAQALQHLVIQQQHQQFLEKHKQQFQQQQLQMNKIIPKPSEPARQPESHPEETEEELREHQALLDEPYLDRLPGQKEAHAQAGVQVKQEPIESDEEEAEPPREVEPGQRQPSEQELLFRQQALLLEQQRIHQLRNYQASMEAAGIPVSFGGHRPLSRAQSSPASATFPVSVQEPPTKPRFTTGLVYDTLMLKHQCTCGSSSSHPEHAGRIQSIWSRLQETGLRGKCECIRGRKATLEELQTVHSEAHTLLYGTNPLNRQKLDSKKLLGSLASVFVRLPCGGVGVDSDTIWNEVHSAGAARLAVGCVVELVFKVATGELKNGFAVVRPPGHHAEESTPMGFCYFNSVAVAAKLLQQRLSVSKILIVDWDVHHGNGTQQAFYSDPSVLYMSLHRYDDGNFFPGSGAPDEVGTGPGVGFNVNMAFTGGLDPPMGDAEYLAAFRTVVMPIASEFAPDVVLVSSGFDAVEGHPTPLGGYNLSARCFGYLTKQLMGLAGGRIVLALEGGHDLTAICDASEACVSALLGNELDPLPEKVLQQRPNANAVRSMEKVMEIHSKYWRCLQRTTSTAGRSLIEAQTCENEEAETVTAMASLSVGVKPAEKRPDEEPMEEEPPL

Nc1ccccc1NC(=O)c1ccc(CNC(=O)OCc2cccnc2)cc1 [ENTINOSTAT]
half-life [1]: 52 to 150 h | Activity (Rattus norvegicus [2]): 50% | logD [3]: 1.8 | Activity (Rattus norvegicus [4]): 25% | half-life [5]: 33.9 h | logD [6]: 2.5 | Drug uptake (Brain [7]): < 0.1% | Drug uptake (Brain [8]): < 0.001% | Activity (Rattus norvegicus [9]): 75%

Nc1ccccc1NC(=O)CCCCCCC(=O)Nc1cccc(-c2cn(-c3ccccc3)nn2)c1
IC50 (Histone deacetylase 8 [10]): > 30 µM | IC50 [11]: > 30 µM | IC50 (Histone deacetylase 2 [12]): > 30 µM | IC50 [13]: > 30 µM | IC50 (Histone deacetylase 1 [14]): > 30 µM

Nc1ccccc1NC(=O)CCCCCC(=O)Nc1ccccc1
IC50 (Histone deacetylase 7): > 180 µM | IC50 (Histone deacetylase 4): > 180 µM | IC50 (Histone deacetylase 2 [15]): 1.59 µM | IC50 (Histone deacetylase 1 [16]): 0.199 µM | IC50 [17]: 0.069 µM | IC50 (Histone deacetylase 5): > 180 µM | IC50 (Histone deacetylase 8 [18]): 5 µM
